Laboratory results published in ChEMBL document CHEMBL5260845, “Flavone-based arylamides as potential anticancers: Design, synthesis and in vitro cell-based/cell-free evaluations” (2020).
Blank lines part the entries; values can stand above or below the molecule they belong to. The source made the active and inactive calls. The calls are words filed in the database; no cut-off is given here.

Assays:
[1] = biological target: Angiopoietin-1 receptor (Homo sapiens) (UniProt Q02763); experiment: Inhibition of TIE2 (unknown origin) at 10 uM by biochemical hotspot kinase assay relative to control
HCT-15 = experiment: Antiproliferative activity against human HCT-15 cells assessed as cell growth inhibition at 10 uM by SRB assay; type: functional, cell-based
[2] = biological target: Fibroblast growth factor receptor 3 (Homo sapiens) (UniProt P22607); experiment: Inhibition of FGFR3 (unknown origin) at 10 uM by biochemical hotspot kinase assay relative to control
HCT-116 = experiment: Antiproliferative activity against human HCT-116 cells assessed as cell growth inhibition at 10 uM by SRB assay; type: functional, cell-based
[3] = biological target: Fibroblast growth factor receptor 2 (Homo sapiens) (UniProt P21802); experiment: Inhibition of FGFR2 (unknown origin) at 10 uM by biochemical hotspot kinase assay
[4] = biological target: Tyrosine-protein kinase BTK (Homo sapiens) (UniProt Q06187); experiment: Inhibition of BTK (unknown origin) at 10 uM by biochemical hotspot kinase assay relative to control
A549 [5] = experiment: Antiproliferative activity against human A549 cells assessed as cell growth inhibition at 10 uM by SRB assay; type: functional, cell-based
[6] = biological target: Serine/threonine-protein kinase Chk2 (Homo sapiens) (UniProt O96017); experiment: Inhibition of CHK2 (unknown origin) at 10 uM by biochemical hotspot kinase assay relative to control
[7] = biological target: Mitogen-activated protein kinase kinase kinase kinase 4 (Homo sapiens) (UniProt O95819); experiment: Inhibition of HGK (unknown origin) at 10 uM by biochemical hotspot kinase assay relative to control
HT-29 [8] = experiment: Antiproliferative activity against human HT-29 cells assessed as cell growth inhibition by SRB assay; type: functional
[9] = biological target: Receptor-interacting serine/threonine-protein kinase 2 (Homo sapiens) (UniProt O43353); experiment: Inhibition of RIPK2 (unknown origin) at 10 uM by biochemical hotspot kinase assay relative to control
[10] = biological target: Mitogen-activated protein kinase kinase kinase 8 (Homo sapiens) (UniProt P41279); experiment: Inhibition of MAP3K8 (unknown origin) at 10 uM by biochemical hotspot kinase assay relative to control
KM12 = experiment: Antiproliferative activity against human KM12 cells assessed as cell growth inhibition at 10 uM by SRB assay; type: functional, cell-based
[11] = Antiproliferative activity against human hematologic cancer cells assessed as cell growth inhibition at 10 uM by SRB assay relative to control; type: functional
[12] = biological target: Serine/threonine-protein kinase B-raf (Homo sapiens) (UniProt P15056); experiment: Inhibition of B-RAF (unknown origin) at 10 uM by biochemical hotspot kinase assay relative to control
HT-29 [13] = experiment: Induction of cell cycle arrest in human HT-29 cells assessed as accumulation of cells at G1 phase at 2.5 uM incubated for 24 hrs by PI staining based analysis (reference value: 40.3%); type: functional
[14] = biological target: Protein kinase C alpha type (Homo sapiens) (UniProt P17252); experiment: Inhibition of PKCa (unknown origin) at 10 uM by biochemical hotspot kinase assay
[15] = biological target: Serine/threonine-protein kinase pim-1 (Homo sapiens) (UniProt P11309); experiment: Inhibition of PIM1 (unknown origin) at 10 uM by biochemical hotspot kinase assay relative to control
SR = experiment: Antiproliferative activity against human SR cells assessed as cell growth inhibition at 10 uM by SRB assay; type: functional, cell-based
HL-60 = experiment: Antiproliferative activity against human HL-60 cells assessed as cell growth inhibition at 10 uM by SRB assay; type: functional, cell-based
[16] = biological target: Death-associated protein kinase 2 (Homo sapiens) (UniProt Q9UIK4); experiment: Inhibition of DAPK2 (unknown origin) at 10 uM by biochemical hotspot kinase assay relative to control
[17] = biological target: Vascular endothelial growth factor receptor 2 (Homo sapiens) (UniProt P35968); experiment: Inhibition of VEGFR2 (unknown origin) at 10 uM by biochemical hotspot kinase assay
HT-29 [18] = experiment: Induction of cell cycle arrest in human HT-29 cells assessed as accumulation of cells at G1 phase at 5 uM incubated for 24 hrs by PI staining based analysis (reference value: 40.3%); type: functional
[19] = biological target: Mitogen-activated protein kinase 14 (Homo sapiens) (UniProt Q16539); experiment: Inhibition of p38a (unknown origin) at 10 uM by biochemical hotspot kinase assay
[20] = biological target: Tyrosine-protein kinase JAK3 (Homo sapiens) (UniProt P52333); experiment: Inhibition of JAK3 (unknown origin) at 10 uM by biochemical hotspot kinase assay
[21] = biological target: Wee1-like protein kinase (Homo sapiens) (UniProt P30291); experiment: Inhibition of WEE1 (unknown origin) at 10 uM by biochemical hotspot kinase assay
[22] = biological target: Mitogen-activated protein kinase 3 (Homo sapiens) (UniProt P27361); experiment: Inhibition of ERK1 (unknown origin) at 10 uM by biochemical hotspot kinase assay
Lung cancer cell line = experiment: Antiproliferative activity against human lung cancer cells assessed as cell growth inhibition at 10 uM by SRB assay relative to control; type: functional
[23] = biological target: Epidermal growth factor receptor (Homo sapiens) (UniProt P00533); experiment: Inhibition of EGFR (unknown origin) at 10 uM by biochemical hotspot kinase assay
RPMI-8226 = experiment: Antiproliferative activity against human RPMI-8226 cells assessed as cell growth inhibition by SRB assay; type: functional
[24] = biological target: Death-associated protein kinase 3 (Homo sapiens) (UniProt O43293); experiment: Inhibition of DAPK3 (unknown origin) at 10 uM by biochemical hotspot kinase assay
HOP-62 [25] = experiment: Antiproliferative activity against human HOP-62 cells assessed as cell growth inhibition at 10 uM by SRB assay; type: functional, cell-based
M14 = experiment: Antiproliferative activity against human M14 cells assessed as cell growth inhibition at 10 uM by SRB assay relative to control; type: functional
MCF7 = experiment: Antiproliferative activity against estrogen receptor positive human MCF7 cells assessed as inhibition of cell growth at 10 uM by SRB assay; type: functional, cell-based
T47D = experiment: Antiproliferative activity against estrogen receptor positive human T47D cells assessed as inhibition of cell growth at 10 uM by SRB assay; type: functional, cell-based
HOP-92 = experiment: Antiproliferative activity against human HOP-92 cells assessed as cell growth inhibition at 10 uM by SRB assay relative to control; type: functional
HOP-62 [26] = experiment: Antiproliferative activity against human HOP-62 cells assessed as cell growth inhibition at 10 uM by SRB assay relative to control; type: functional
NCI-H226 = experiment: Antiproliferative activity against human NCI-H226 cells assessed as cell growth inhibition at 10 uM by SRB assay relative to control; type: functional; conditions: pooled result: one value given for 4 cell lines, strains, targets or settings
A549 [27] = experiment: Antiproliferative activity against human A549 cells assessed as cell growth inhibition at 10 uM by SRB assay relative to control; type: functional
TK-10 = experiment: Antiproliferative activity against human TK-10 cells assessed as inhibition of cell growth at 10 uM by SRB assay relative to control; type: functional

Sequence of Mitogen-activated protein kinase 3 (Homo sapiens) (P27361 whole entry): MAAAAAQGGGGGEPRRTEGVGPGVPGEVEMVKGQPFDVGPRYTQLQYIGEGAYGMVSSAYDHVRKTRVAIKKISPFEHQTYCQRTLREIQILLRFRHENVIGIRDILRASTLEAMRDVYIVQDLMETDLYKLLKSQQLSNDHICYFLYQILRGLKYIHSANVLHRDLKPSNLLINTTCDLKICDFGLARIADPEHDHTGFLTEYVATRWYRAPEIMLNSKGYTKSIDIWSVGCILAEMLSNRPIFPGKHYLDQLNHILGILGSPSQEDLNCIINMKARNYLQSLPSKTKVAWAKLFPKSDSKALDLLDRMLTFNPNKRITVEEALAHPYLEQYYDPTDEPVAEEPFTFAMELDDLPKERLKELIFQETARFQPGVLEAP
Sequence of Fibroblast growth factor receptor 3 (Homo sapiens) (P22607 23-806 limits assumed): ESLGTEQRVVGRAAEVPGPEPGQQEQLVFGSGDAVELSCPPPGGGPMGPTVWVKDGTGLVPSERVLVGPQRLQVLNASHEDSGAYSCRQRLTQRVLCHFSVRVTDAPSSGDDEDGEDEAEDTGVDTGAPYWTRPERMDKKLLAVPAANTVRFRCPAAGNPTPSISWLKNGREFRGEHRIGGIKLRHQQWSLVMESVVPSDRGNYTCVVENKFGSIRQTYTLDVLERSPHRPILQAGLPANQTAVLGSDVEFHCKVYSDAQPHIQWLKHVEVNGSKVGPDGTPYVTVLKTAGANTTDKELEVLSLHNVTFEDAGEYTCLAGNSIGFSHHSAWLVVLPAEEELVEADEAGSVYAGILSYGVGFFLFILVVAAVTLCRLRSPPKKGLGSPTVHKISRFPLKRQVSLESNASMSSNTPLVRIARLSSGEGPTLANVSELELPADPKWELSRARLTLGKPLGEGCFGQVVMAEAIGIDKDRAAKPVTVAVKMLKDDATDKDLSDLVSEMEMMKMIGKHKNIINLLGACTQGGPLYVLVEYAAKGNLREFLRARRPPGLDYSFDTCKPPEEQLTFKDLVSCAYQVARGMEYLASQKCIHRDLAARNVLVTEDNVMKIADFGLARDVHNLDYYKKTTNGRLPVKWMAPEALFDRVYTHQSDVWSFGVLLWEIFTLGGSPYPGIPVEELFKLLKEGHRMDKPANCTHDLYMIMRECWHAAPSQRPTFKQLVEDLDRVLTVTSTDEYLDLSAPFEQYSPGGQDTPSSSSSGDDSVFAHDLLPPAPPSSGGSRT
Sequence of Serine/threonine-protein kinase Chk2 (Homo sapiens) (O96017 whole entry): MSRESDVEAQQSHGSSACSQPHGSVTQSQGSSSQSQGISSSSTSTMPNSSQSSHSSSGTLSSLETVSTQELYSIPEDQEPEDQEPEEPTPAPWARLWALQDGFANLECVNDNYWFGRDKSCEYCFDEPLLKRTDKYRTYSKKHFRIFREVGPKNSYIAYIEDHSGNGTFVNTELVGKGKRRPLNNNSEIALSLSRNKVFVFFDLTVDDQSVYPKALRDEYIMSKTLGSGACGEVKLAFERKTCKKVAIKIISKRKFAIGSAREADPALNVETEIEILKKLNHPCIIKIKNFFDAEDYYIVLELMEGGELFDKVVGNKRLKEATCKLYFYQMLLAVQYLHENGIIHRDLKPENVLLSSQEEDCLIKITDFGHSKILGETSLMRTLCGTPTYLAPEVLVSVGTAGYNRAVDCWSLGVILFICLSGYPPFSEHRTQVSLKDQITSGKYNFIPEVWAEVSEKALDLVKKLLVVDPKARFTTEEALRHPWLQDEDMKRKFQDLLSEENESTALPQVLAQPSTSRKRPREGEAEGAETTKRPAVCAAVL
Sequence of Fibroblast growth factor receptor 2 (Homo sapiens) (P21802 22-821 limits assumed): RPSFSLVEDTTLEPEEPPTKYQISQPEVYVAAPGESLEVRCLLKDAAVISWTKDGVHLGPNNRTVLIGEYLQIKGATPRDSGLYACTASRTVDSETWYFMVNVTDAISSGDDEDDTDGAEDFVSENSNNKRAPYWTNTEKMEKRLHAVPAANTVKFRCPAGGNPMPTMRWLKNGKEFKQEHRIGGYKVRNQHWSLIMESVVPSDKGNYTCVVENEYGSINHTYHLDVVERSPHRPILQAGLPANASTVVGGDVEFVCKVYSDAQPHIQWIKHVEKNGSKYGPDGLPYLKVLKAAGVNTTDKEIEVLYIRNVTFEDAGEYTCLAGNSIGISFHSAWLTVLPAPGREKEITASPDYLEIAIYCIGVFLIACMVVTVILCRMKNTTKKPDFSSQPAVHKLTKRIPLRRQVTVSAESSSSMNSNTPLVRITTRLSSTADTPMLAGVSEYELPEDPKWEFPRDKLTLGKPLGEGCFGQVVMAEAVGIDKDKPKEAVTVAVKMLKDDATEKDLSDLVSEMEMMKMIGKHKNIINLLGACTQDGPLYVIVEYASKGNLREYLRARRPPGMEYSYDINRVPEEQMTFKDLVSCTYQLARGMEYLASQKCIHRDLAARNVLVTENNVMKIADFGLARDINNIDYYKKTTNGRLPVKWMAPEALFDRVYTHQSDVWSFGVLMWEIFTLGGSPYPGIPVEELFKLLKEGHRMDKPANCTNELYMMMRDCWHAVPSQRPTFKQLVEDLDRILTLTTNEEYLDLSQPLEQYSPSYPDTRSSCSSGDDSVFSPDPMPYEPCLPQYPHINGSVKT
Sequence of Tyrosine-protein kinase BTK (Homo sapiens) (Q06187 whole entry): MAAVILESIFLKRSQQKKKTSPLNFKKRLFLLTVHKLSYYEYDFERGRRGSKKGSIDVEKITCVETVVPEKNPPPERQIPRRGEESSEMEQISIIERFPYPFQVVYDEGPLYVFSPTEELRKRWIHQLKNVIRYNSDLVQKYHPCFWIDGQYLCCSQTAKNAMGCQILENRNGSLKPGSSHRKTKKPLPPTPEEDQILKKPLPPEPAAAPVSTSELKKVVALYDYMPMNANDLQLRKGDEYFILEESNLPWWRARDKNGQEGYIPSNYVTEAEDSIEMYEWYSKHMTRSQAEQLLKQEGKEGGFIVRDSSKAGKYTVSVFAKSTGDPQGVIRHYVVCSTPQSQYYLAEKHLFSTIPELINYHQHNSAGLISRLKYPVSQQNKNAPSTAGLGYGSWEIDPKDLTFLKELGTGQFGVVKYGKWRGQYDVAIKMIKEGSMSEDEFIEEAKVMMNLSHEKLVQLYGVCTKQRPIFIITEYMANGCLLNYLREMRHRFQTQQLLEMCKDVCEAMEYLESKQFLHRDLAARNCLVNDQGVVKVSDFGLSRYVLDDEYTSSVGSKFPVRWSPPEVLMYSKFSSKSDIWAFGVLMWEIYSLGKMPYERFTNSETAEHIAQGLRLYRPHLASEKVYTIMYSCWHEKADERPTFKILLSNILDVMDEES
Sequence of Mitogen-activated protein kinase kinase kinase 8 (Homo sapiens) (P41279 whole entry): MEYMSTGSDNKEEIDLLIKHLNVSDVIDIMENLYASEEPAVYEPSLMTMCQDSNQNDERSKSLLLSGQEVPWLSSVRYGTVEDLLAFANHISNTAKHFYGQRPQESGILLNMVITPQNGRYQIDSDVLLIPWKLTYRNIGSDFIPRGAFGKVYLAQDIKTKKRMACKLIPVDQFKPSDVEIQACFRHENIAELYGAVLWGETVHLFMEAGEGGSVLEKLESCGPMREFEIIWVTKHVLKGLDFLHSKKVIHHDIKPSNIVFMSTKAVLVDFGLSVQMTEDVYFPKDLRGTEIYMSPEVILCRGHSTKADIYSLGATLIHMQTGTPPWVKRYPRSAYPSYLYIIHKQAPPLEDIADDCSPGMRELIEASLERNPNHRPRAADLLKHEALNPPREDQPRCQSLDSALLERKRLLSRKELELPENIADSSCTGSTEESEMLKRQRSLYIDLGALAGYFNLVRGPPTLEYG
Sequence of Serine/threonine-protein kinase B-raf (Homo sapiens) (P15056 whole entry): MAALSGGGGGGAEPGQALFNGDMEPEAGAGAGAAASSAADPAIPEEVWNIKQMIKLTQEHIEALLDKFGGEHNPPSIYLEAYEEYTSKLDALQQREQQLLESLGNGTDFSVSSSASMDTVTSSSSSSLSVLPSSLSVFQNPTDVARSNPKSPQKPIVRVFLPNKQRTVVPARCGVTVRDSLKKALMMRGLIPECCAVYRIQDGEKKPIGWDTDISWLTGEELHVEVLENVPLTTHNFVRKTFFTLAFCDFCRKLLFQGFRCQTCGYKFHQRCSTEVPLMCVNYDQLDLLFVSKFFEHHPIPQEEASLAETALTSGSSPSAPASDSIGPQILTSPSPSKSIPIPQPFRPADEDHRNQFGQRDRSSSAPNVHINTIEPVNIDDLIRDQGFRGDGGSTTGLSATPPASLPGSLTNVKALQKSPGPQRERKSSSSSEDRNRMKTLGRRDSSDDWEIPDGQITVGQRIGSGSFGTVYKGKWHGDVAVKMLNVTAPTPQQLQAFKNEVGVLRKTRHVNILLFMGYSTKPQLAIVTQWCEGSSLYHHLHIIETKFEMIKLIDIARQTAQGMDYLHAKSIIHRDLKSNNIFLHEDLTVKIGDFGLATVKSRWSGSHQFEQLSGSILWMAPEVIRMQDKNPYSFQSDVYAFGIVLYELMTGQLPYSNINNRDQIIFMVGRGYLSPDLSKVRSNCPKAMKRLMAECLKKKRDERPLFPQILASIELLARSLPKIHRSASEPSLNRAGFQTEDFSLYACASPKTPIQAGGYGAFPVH
Sequence of Receptor-interacting serine/threonine-protein kinase 2 (Homo sapiens) (O43353 whole entry): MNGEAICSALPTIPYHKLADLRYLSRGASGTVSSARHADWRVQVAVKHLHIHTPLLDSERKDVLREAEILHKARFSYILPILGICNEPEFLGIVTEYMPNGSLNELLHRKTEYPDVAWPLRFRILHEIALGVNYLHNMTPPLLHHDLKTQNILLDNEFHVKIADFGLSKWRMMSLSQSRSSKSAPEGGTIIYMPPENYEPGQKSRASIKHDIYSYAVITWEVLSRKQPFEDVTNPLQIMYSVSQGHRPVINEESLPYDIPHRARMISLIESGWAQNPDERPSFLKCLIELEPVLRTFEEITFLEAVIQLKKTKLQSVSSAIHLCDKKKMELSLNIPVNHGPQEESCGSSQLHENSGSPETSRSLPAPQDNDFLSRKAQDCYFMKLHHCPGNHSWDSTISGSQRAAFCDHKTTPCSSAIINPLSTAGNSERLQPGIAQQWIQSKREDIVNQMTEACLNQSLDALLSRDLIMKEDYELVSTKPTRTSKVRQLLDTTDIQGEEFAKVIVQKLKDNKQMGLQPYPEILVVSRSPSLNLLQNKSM

inhibition [1]: 0.46%
inhibition [2]: 0.26%
inhibition [3]: inactive
inhibition [4]: 9.9%
inhibition [6]: 6.31%
inhibition [7]: 48.8%
GI50 (HT-29 [8]): 2550 nM
inhibition [9]: 36.1%
inhibition [10]: 3.13%
inhibition [12]: 34.3%
inhibition [14]: inactive
inhibition [15]: 6.26%
inhibition [17]: inactive
inhibition [19]: inactive
inhibition [20]: inactive
inhibition [21]: inactive
inhibition [22]: inactive
inhibition [23]: inactive
GI50 (RPMI-8226): 370 nM
Structure (SMILES): COc1cc2oc(-c3cccc(C(=O)Nc4ccc(C)cc4)c3)cc(=O)c2c(OC)c1OC
inhibition (HCT-15): Active
inhibition (HCT-116): Active
inhibition (A549 [5]): Active
inhibition (KM12): Active
inhibition at 10 µM [11]: 72.5%
Activity (HT-29 [13]): 55.4%
inhibition (SR): Active
inhibition (HL-60): Active
inhibition [16]: 0.74%
Activity (HT-29 [18]): 59.1%
inhibition at 10 µM (Lung cancer cell line): 66.5%
inhibition [24]: inactive
inhibition (HOP-62 [25]): Active

GI50 (RPMI-8226): 490 nM
Structure (SMILES): COc1cc2oc(-c3cccc(C(=O)Nc4ccc(Cl)cc4)c3)cc(=O)c2c(OC)c1OC
inhibition (HCT-15): Active
inhibition (HCT-116): Active
inhibition at 10 µM (M14): 107%
inhibition (MCF7): Active
inhibition (A549 [5]): Active
inhibition (T47D): Active
inhibition at 10 µM (HOP-92): 87.2%
inhibition (KM12): Active
inhibition at 10 µM [11]: 90%
inhibition at 10 µM (HOP-62 [26]): 87.2%
inhibition at 10 µM (NCI-H226): 51.8%
inhibition (SR): Active
inhibition (HL-60): Active
inhibition at 10 µM (A549 [27]): 74.8%
inhibition at 10 µM (Lung cancer cell line): 61.5%
inhibition (HOP-62 [25]): Active
inhibition at 10 µM (TK-10): 61.4%
